According to ChEMBL document CHEMBL3507680, “University of Dundee, Gates Library screen for HepG2 cell viability”:

Assay: Human HepG2 cell viability assay in 384 well format
Assay type: toxicity, cell-based
Design: dose 125 nL, time 70.5 hour; cytotoxicity at 70.5 h: concentration not given beside the values
Settings: HepG2 cells, read-out: Inhibition

| Compound | cytotoxicity at 70.5 h [%] |
| --- | --- |
| CC(=O)N1CC2(CCCC2)c2ccccc21 | -3.2 |
| Cc1noc(OCc2csc(C)n2)n1 | -3.72 |
| CC(C)S(=O)(=O)C(C)C(=O)Nc1ccc2oc(C3CC3)nc2c1 (stereo not drawn) | -2.28 |
| COc1ccncc1NC(=O)c1[nH]nc(C(C)C)c1Br | -3.93 |
| O=C1NCCCCC1SCc1coc(-c2cccc(F)c2)n1 (stereo not drawn) | -5.82 |
| COc1ccc2nc(C3CC3)cc(C(=O)NCC(=O)N(C)C)c2c1 | -2.45 |
| Cc1nc(C2CCN(S(=O)(=O)c3ccc4c(c3)CCC4)CC2)n[nH]1 | -2.6 |
| Cn1ccc(CNC(=O)Nc2ccc(S(=O)(=O)C(F)F)cc2)c1 | -2.09 |
| CC(=O)NC(Cc1c[nH]c2cc(F)ccc12)C(=O)Nc1nonc1C (stereo not drawn) | 22 |
| CC(C#N)CNC(=O)Nc1ccc(-c2cc[nH]n2)cc1 (stereo not drawn) | -1.44 |
| COc1ccc2nc(C3CC3)cc(C(=O)NCCc3nnc[nH]3)c2c1 | -3.73 |
| CC(C)c1cc(C(=O)N(c2ccc(F)cn2)C2CCOCC2)on1 | 1.54 |
| CC(C#N)CNC(=O)Nc1ccc(-c2ccc[nH]2)cc1 (stereo not drawn) | -0.22 |
| CS(=O)(=O)c1ccc(NCc2ccccc2)cn1 | -2.92 |
| CC(C)(Oc1ccc(F)cc1)C(=O)NCc1ccco1 | -2.11 |
| CC(NC(=O)N1CCC2(C1)OCCO2)c1ccc(F)cc1Cl (stereo not drawn) | 4.97 |
| Cc1nc(COc2nc(C(C)C)no2)cs1 | -5.35 |
| O=C(c1cccc(O)c1)N1CCN(Cc2nnc(C3CCC3)o2)CC1 | 23.6 |
| Cc1nc(C)n(CC2CCCCN2c2ccnc(-c3ccccc3)n2)n1 (stereo not drawn) | 5.38 |
| CN(C)CCN(C)S(=O)(=O)CC1CCOCC1 | -7.41 |
| CC(OCC1CC1)C(=O)NCc1cccc(CN2CCCC2=O)c1 (stereo not drawn) | 1.05 |
| O=C(COC1CCCCC1)Nc1ccn(Cc2ccccn2)n1 | -5.54 |
| CC(C)(C)c1ccc2c(c1)CCN2C(=O)c1ccc(=O)[nH]n1 | -5.53 |
| CC(C)(C)n1c(NC(=O)CNC(=O)NC2CC2)nc2ccccc21 | 1.24 |

| Compound | cytotoxicity at 70.5 h [%] |
| --- | --- |
| CN(CCOc1ccccc1F)S(=O)(=O)CC1CCOCC1 | -8.77 |
| NC(=O)CCCNC(=O)CCc1cc(Br)cs1 | -5.18 |
| O=C(C1CCOc2ccccc21)N1CCOc2cccc(F)c21 (stereo not drawn) | 4.13 |
| CC(=O)N1CCN(c2ccccc2CNc2cc(F)cc(F)c2)CC1 | 13.8 |
| O=S(=O)(c1ccc2c(c1)CCC2)N1CCCC(Cn2cncn2)C1 (stereo not drawn) | 0.224 |
| O=C(NCc1ccc(C(=O)O)o1)c1ccc(F)cc1 | 0.996 |
| O=S(=O)(c1cccc(Cl)c1)N1CCCC(Cn2cncn2)C1 (stereo not drawn) | -4.36 |
| Cn1nc2c(cc1=O)CN(CC1CCCCO1)CC2 (stereo not drawn) | -2.64 |
| CCOC(C)C(=O)NCc1cccc(CN2CCCCCC2)c1 (stereo not drawn) | -2.85 |
| O=C(C1CCCC1)N1CCOc2cccc(F)c21 | -7.17 |
| COc1ccc(NCc2ccccc2N2CCN(C(C)=O)CC2)cn1 | 0.712 |
| CC(=O)N1CCN(c2ccccc2CNc2ccc(C)cn2)CC1 | -3.33 |
| CCN(Cc1c(F)cccc1F)C(=O)c1ccncc1O | -7.76 |
| CCC(C(=O)NCCc1ccn(-c2ccccc2)n1)N1CCCC1=O (stereo not drawn) | -5.95 |
| COCCCS(=O)(=O)N1CCN(Cc2cccn2C)CC1 | 43.4 |
| CCn1cnnc1CNC(=O)c1ccc(Br)cc1F | 22.3 |
| N#Cc1ncn(CC(=O)N2CCCC2c2cccs2)n1 (stereo not drawn) | 22.9 |
| CN(CC(=O)NC(C)(C)C)Cc1cccc2c1OCCO2 | 33.4 |
| CCC(NC(=O)NC1CCN(S(C)(=O)=O)CC1)c1cccs1 (stereo not drawn) | -11.5 |
| O=C(C1CC1)N1CCCCCC1C1CCN(c2ncccn2)CC1 (stereo not drawn) | -9.64 |
| NC(=O)N1CCCCCC1C1CCN(c2nccc(C(F)(F)F)n2)CC1 (stereo not drawn) | -13.9 |
| CCc1nnc2n1CCN(c1nc(C)cc(N(C)C)n1)C2 | -13.4 |
| O=C(COc1ccc(Cl)cc1)NCc1nncn1C1CC1 | -14.1 |
| CCn1cnnc1CCNC(=O)c1ccc(Br)cc1F | -4.19 |

| Compound | cytotoxicity at 70.5 h [%] |
| --- | --- |
| COCc1c(Br)cccc1NC(=O)N(C)CCO | -12.1 |
| CS(=O)(=O)NCCN1CCSCC1c1ccc(Cl)cc1 (stereo not drawn) | -2.66 |
| NC(=O)N1CCCC(C(=O)NCCOc2ccc(F)cc2F)C1 (stereo not drawn) | 0.645 |
| Cc1noc(C)c1NC(=O)NC1CCN(C(=O)OC(C)(C)C)CC1 | -9.26 |
| NC(=O)C1CCCN1CCCc1ccc(Cl)cc1 (stereo not drawn) | -5.15 |
| O=C(NCC1(O)CCOCC1)c1ccn(-c2ccccc2F)n1 | -9.56 |
| O=C(NCC1(O)CCSC1)c1ccn(-c2ccccc2F)n1 (stereo not drawn) | -15.6 |
| CNC(=O)c1cccc(NCC(=O)Nc2cc(C)nn2C)c1C | -14 |
| CCNC(=O)N1CCC(=Cc2ccccc2)CC1 | 1.05 |
| Cc1oc(CNC(=O)Cc2cccc(OC(F)F)c2)cc1C(=O)O | -7.31 |
| C/C=C(/C)C(=O)NS(=O)(=O)c1ccc(C(F)(F)F)cc1 | 0.976 |
| Cc1ccc(CNC(=O)NCC(=O)N2CCCC2)c(N2CCCC2)c1 | 4.74 |
| O=C(OCc1ccccc1)C1CCCN1Cc1nc(C2CC2)no1 (stereo not drawn) | -17.4 |
| Cc1noc(C)c1C(C)NC(=O)N1CCN(c2cccs2)CC1 (stereo not drawn) | 6.76 |
| O=C(CN1CCN(c2ncnc3cccc(F)c23)CC1)N1CCCC1 | -9.51 |
| CCc1noc(CN2CCCC2C(=O)OCc2ccccc2)n1 (stereo not drawn) | -16.5 |
| CC(O)(CNc1ccc(Cl)c(C#N)n1)c1ccsc1 (stereo not drawn) | 10.6 |
| Cn1cc(C(C)(O)CNc2ccc(Cl)c(C#N)n2)cn1 (stereo not drawn) | 5.37 |
| CC(C)CCC(=O)N1CCN(C(C)c2nnc(CC(C)C)o2)CC1 (stereo not drawn) | 23.3 |
| O=C(c1sccc1-n1cnnn1)N1CCCCC1 | -6.17 |
| CC(Nc1ccc(Br)cc1)c1nc(C2CC2)no1 (stereo not drawn) | -1.22 |
| CC1CCN(C(=O)c2sccc2-n2cnnn2)CC1 | -4.67 |
| CC(C(=O)NCc1ccco1)N1CCN(Cc2nccn2C)CC1 (stereo not drawn) | -5.54 |
| O=C1CCN(C(=O)NCC(c2ccccc2)c2ccccc2)CCN1 | -2.48 |

| Compound | cytotoxicity at 70.5 h [%] |
| --- | --- |
| CCC(=O)NCC(=O)NC(C)c1sc(-c2ccccc2F)nc1C (stereo not drawn) | 10.3 |
| CCC(=O)NCC1(O)CCC(C(C)(C)C)CC1 (stereo not drawn) | -4.59 |
| CCC(=O)NCC(=O)NCC1(O)CCC(C(C)(C)C)CC1 (stereo not drawn) | -7.33 |
| CC(C)n1cnnc1CNC(=O)c1cnn(Cc2ccccc2)c1 | -2.61 |
| Cc1cccc(CNc2ccc(C(=O)N3CCC(CO)CC3)cc2)c1 | -5.19 |
| CCNC(=O)CCC(=O)NCC1(O)CCC(C(C)(C)C)CC1 (stereo not drawn) | -2.55 |
| CCN1CC(COC(=O)c2cccc(Br)c2)CC1=O (stereo not drawn) | -7.36 |
| O=C1CC2(CCSC2)C(=O)N1Cc1ncc(-c2cccc(F)c2)o1 (stereo not drawn) | -1.19 |
| CC(C)NC(=O)N1CCC[C@H]1C(=O)NCCCc1cccc(F)c1 | -5.95 |
| O=C1CC2(CCSC2)C(=O)N1Cc1coc(-c2ccc(F)cc2)n1 (stereo not drawn) | -3.42 |
| CCN1CC(COC(=O)c2ccc(N(C)C)cc2F)CC1=O (stereo not drawn) | -3.33 |
| N#Cc1ccc(CN2CCN(Cc3ccncc3Cl)CC2=O)cc1 | 2.38 |
| CC(C)COC(=O)N1CCCN(C(C)c2nnc(CC(C)C)o2)CC1 (stereo not drawn) | -3.09 |
| CCN1CC(COC(=O)c2cc(Br)ccc2F)CC1=O (stereo not drawn) | 0.441 |
| CC1(C)CN(C(CNS(N)(=O)=O)c2ccc(Cl)cc2)CCO1 (stereo not drawn) | -3.76 |
| CC(=O)N1CCN(C(C)c2nnc(CC(C)C)o2)CC1 (stereo not drawn) | -4.1 |
| NC(=O)CC1CCCN(C(=O)NCC2(c3cccs3)CCCC2)C1 (stereo not drawn) | -0.84 |
| N#Cc1ccc(CN2CCN(c3ccncc3Cl)CC2=O)cc1 | -4.03 |
| Cc1noc(C(C)Nc2ccc3c(c2)CCC3)n1 (stereo not drawn) | 8.72 |
| Cc1cc(CN(C)CC2CC(C3CCCCC3)=NO2)no1 (stereo not drawn) | 0.975 |
| CCOc1ccc2c(c1)C=C(C(=O)NC(C)Cn1cccn1)CO2 (stereo not drawn) | -5.74 |
| CCCOc1ccc2c(c1)OCC(C(=O)NC(C)Cn1cccn1)=C2 (stereo not drawn) | 1.23 |
| CCCOc1ccc2c(c1)OCC(C(=O)NC(C)Cn1ccnc1)=C2 (stereo not drawn) | -6.31 |
| Cc1cc(C)nc(N2CCc3ccc(OC(F)F)cc3C2)n1 | -2.64 |

| Compound | cytotoxicity at 70.5 h [%] |
| --- | --- |
| CS(=O)(=O)c1ccc2c(c1)N(C(=O)Cc1ccc(F)cc1)CCC2 | 14.3 |
| CS(=O)(=O)c1ccc2c(c1)N(C(=O)c1cccc(F)c1)CCC2 | -4.57 |
| CCc1ccc(O)c(C(=O)N2CCN(CC(=O)N(C)C)CC2)c1 | -1.61 |
| CS(=O)(=O)c1cccc2c1CCCN2C(=O)Cc1cccc(F)c1 | -2.8 |
| COc1ccc(Oc2ncccc2NC(=O)N2CCOCC2)cc1 | -6.42 |
| CC(C)C(NC(=O)Nc1cnn(CC(N)=O)c1)c1ccc(Cl)cc1 (stereo not drawn) | -1.5 |
| COC(=O)C(CNC(=O)Nc1nncs1)Cc1ccc(O)cc1 (stereo not drawn) | -2.82 |
| CC(Nc1nc2c(cnn2C)c(=O)[nH]1)c1ccc(F)cc1 (stereo not drawn) | -2.55 |
| CC(Nc1nc2c(cnn2C)c(=O)[nH]1)c1ccc2c(c1)CCCC2 (stereo not drawn) | -3.73 |
| CC(C)Sc1ccc(C(C)Nc2nc3c(cnn3C)c(=O)[nH]2)cc1 (stereo not drawn) | -3.27 |
| Cn1nc2c(cc1=O)CN(Cc1nc(-c3ccoc3)no1)CC2 | -2.1 |
| Cc1cc(CN(C)C(=O)NC(C)Cc2ccc(O)cc2)no1 (stereo not drawn) | 0.825 |
| CC(C(=O)Nc1cnn(CC(N)=O)c1)c1ccc(Cl)s1 (stereo not drawn) | -4.91 |
| Cc1ccc(CN(CC(=O)NCC2CCOC2)c2ccc(F)cc2)o1 (stereo not drawn) | -3.8 |
| O=C(Nc1ccc(OC(F)F)cc1)N1CCC(c2nnc[nH]2)CC1 | -2.12 |
| CCOc1cc(NC(=O)N2CCC(c3nnc[nH]3)CC2)ccc1C | -0.547 |
| Cc1cc(CN(C)CC2CCCCC2)no1 | -2 |
| CCN(Cc1ccccc1C)S(C)(=O)=O | -3.77 |
| Cc1ccccc1CCCN(C)S(C)(=O)=O | -3.41 |
| Cc1ccccc1CCCN(Cc1ccccn1)S(C)(=O)=O | -0.248 |
| CC(C)n1nc2c(cc1=O)CN(Cc1nc(-c3ccoc3)no1)CC2 | 17 |
| CC1(C)CN(C(CNC2=NCCN2)c2ccc(Cl)cc2)CCO1 (stereo not drawn) | -5.1 |
